Structures can show the parent of a compound that is named as a salt.

Here are results for 65 compounds from paper PMC7489219 (Molecular Brain, 2020).

For this experiment, the system named is T1, primary mouse cortical neurons.
T1 construct: primary cortical neurons, DIV 10
The experiment in a line: cells. The arrangement: Protection from NMDA-induced (30 uM, 10 min) neuronal death; Hoechst nuclear morphology by automated microscopy. The settings on record: Cortical neurone, 20 h, read-out: % inhibition, inhibition of NMDA-induced cell death (protection score), 30 min pre-treatment. Summed up:
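On DIV 10, primary mouse cortical neurons were given compound at 10 μM for 30 min at 37 °C, then 30 μM NMDA for 10 min, washed, and kept 20 h with compound. Dead cells were scored by nuclear morphology, and % protection was derived from survival relative to vehicle + NMDA and untreated controls.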

Broadly, the inhibition is the relative decrease from the control value, in per cent. In the case of `C[C@@H]1O[C@@H](Oc2c(-c3cc(O)c(O)c(O)c3)oc3cc(O)cc(O)c3c2=O)[C@H](O)[C@H](O)[C@H]1O` [Myricitrin (Myricitrine)], the inhibition at 10 µM is -2.22%. The result for `COc1cc(CCC(C)=O)ccc1O` [Vanillylacetone] reads 7.76%; that for `CC(c1cc2ccccc2s1)N(O)C(N)=O` (centres unmarked) [Zileuton], -10.2%. As for `CCOC(=O)c1ccc(C#Cc2ccc3c(c2)C(C)(C)CCS3)nc1` [Tazarotene (Avage)], the figure is 38.1%; as for `Nc1nc(Cl)nc2c1ncn2[C@H]1C[C@H](O)[C@@H](CO)O1` [Cladribine], -1.65%. As for `O=C1N=C(O)NC1(c1ccccc1)c1ccccc1` [Phenytoin sodium (Dilantin)], the figure is 3.12%. Turning to `CC(=O)N[C@@H](CS)C(=O)O` [Acetylcysteine], the inhibition at 10 µM was determined as 29%. As for `COc1cc2c(cc1OC)-c1cc3ccc(OC)c(OC)c3c[n+]1CC2` [Palmatine chloride], the figure is 8.5%; as for `COCCOC(=O)C1=C(C)NC(C)=C(C(=O)OC(C)C)C1c1cccc([N+](=O)[O-])c1` (centres unmarked) [Nimodipine (Nimotop)], -0.576%. The result for `CN1CCN(C2=Nc3cc(Cl)ccc3Nc3ccccc32)CC1` [Clozapine (Clozaril)] reads -5.01%; that for `COc1ccc2cccc(CCNC(C)=O)c2c1` [Agomelatine], -12.7%. The result for `Cn1nnc2c(C(N)=O)ncn2c1=O` [Methazolastone] reads 14.3%. Consider `COc1ccc(-c2cc(=O)c3c(O)cc(O)cc3o2)cc1O` [Diosmetin (Luteolin 4-methyl ether)], for which the inhibition at 10 µM amounted to 8.81%. The result for `COc1cc(O)c2c(c1)C(=O)c1cc(C)cc(O)c1C2=O` [Rheochrysidin (Physcione)] reads 18.7%. With `NNC(=O)c1ccncc1` [Isoniazid (Tubizid)], the inhibition at 10 µM worked out at 45.6%.

Regarding `CCN[C@H]1C[C@H](C)S(=O)(=O)c2sc(S(N)(=O)=O)cc21` [Dorzolamide HCL], the inhibition at 10 µM worked out at 0.0606%. The result for `CCOC(=O)[C@H](CCc1ccccc1)N[C@H]1CCc2ccccc2N(CC(=O)O)C1=O` [Benazepril hydrochloride] reads -11.1%; that for `COc1ccc([C@@H]2CC(=O)c3c(O)cc(O)cc3O2)cc1O` [Hesperetin], -3.04%; that for `C[C@H](N[C@@H](CCc1ccccc1)C(=O)O)C(=O)N1CCC[C@H]1C(=O)O` [Enalaprilat dihydrate], -4.34%. As for `CCc1nc(N)nc(N)c1-c1ccc(Cl)cc1` [Pyrimethamine], the figure is -0.769%; as for `COc1ccc(-c2ccc3cc(C(=O)O)ccc3c2)cc1[C@]12C[C@H]3C[C@H](C[C@H](C3)C1)C2` [Adapalene], 63.6%. As for `CCn1cc(C(=O)O)c(=O)c2cc(F)c(N3CCNC(C)C3)c(F)c21` (centres unmarked) [Lomefloxacin hydrochloride (Maxaquin)], the figure is 3.08%. As to `NCCCC(O)(P(=O)(O)O)P(=O)(O)O` [Alendronate (Fosamax)], the inhibition at 10 µM was 40.1%. With `COc1ccc2ccc(=O)oc2c1CC=C(C)C` [Osthole (Osthol)], the inhibition at 10 µM was -1.21%.

Consider `COc1cc2c(cc1Cc1cccc(Cl)c1F)c(=O)c(C(=O)O)cn2[C@H](CO)C(C)C` [Elvitegravir (GS-9137)], for which the inhibition at 10 µM was found to be 89.3%.

Take `CC(=O)OCC(=O)[C@@]12OC(C)(C)O[C@@H]1C[C@H]1[C@@H]3C[C@H](F)C4=CC(=O)C=C[C@]4(C)[C@@]3(F)[C@@H](O)C[C@@]12C` [Fluocinonide (Vanos)]: the inhibition at 10 µM is -1.57%. As for `O=C1c2c(O)cc(O)cc2O[C@H](c2cc(O)c(O)c(O)c2)[C@H]1O` [Dihydromyricetin (Ampeloptin)], the figure is 21.4%; as for `C[C@H](O)[C@H](O)[C@@H](O)[C@@H](O)C=O` [L(+)-Rhamnose Monohydrate], 0.562%. In the case of `C[C@]12C=CC(=O)C=C1CC[C@@H]1[C@@H]2C(=O)C[C@@]2(C)[C@H]1CC[C@]2(O)C(=O)CO` [Prednisone (Adasone)], the inhibition at 10 µM stood at 28.4%. As for `CNCCC[C@]12CC[C@H](c3ccccc31)c1ccccc12` [Maprotiline hydrochloride], the figure is 0.000867%. As for `O=S(=O)(O)CCS` [Mesna (Uromitexan, Mesnex)], the figure is -0.811%; as for `CN[C@@H]1[C@H](O)[C@H](NC)[C@H]2O[C@@]3(O)C(=O)C[C@@H](C)O[C@H]3O[C@@H]2[C@H]1O` [Spectinomycin hydrochloride], -1.03%; as for `CC(=O)OCC(=O)[C@@]1(O)CC[C@H]2[C@@H]3CCC4=CC(=O)C=C[C@]4(C)[C@H]3[C@@H](O)C[C@@]21C` [Prednisolone acetate (Omnipred)], -1.13%. As to `N=C(N)NC(=O)c1nc(Cl)c(N)nc1N` [Amiloride hydrochloride (Midamor)], the inhibition at 10 µM was -0.812%.

As to `O=C(O)c1cc(O)c2c(c1)C(=O)c1cccc(O)c1C2=O` [Rhein (Monorhein)], the inhibition at 10 µM worked out at 5.39%. As to `COC(=O)[C@@H]1[C@H]2C[C@H]3c4[nH]c5ccccc5c4CCN3C[C@@H]2CC[C@@H]1O` [Yohimbine hydrochloride (Antagonil)], the inhibition at 10 µM amounted to 7.7%. As for `O=C1[C@H](CC[C@H](O)c2ccc(F)cc2)[C@@H](c2ccc(O)cc2)N1c1ccc(F)cc1` [Ezetimibe (Zetia)], the figure is 21.4%. With `CNCC(O)c1ccc(O)cc1` (centres unmarked) [Synephrine (Oxedrine)], the inhibition at 10 µM amounted to 3.83%. As for `CC[C@H](/C=C/[C@@H](C)[C@H]1CC[C@H]2[C@@H]3CC=C4C[C@@H](O)CC[C@]4(C)[C@H]3CC[C@]12C)C(C)C` [Stigmasterol (Stigmasterin)], the figure is 4.26%; as for `COC(=O)C1=C(C)NC(C)=C(C(=O)OCC(C)C)C1c1ccccc1[N+](=O)[O-]` (centres unmarked) [Nisoldipine (Sular)], -2.86%; as for `N=c1ccn2c(n1)O[C@H]1[C@H](O)[C@@H](CO)O[C@H]12` [Cyclocytidine HCl], -2.19%.

Turning to `CCCCCCOC(=O)NC(=N)c1ccc(NCc2nc3cc(C(=O)N(CCC(=O)OCC)c4ccccn4)ccc3n2C)cc1` [BIBR-1048 (Dabigatran)], the inhibition at 10 µM was determined as 0.466%.

Take `Nc1ncnc2c1ncn2[C@@H]1O[C@H](COP(=O)(O)OP(=O)(O)OP(=O)(O)O)[C@@H](O)[C@H]1O` [ATP (Adenosine-Triphosphate)]: the inhibition at 10 µM stood at 0.248%.

As to `CCCCC1=NC2(CCCC2)C(=O)N1Cc1ccc(-c2ccccc2-c2nnn[nH]2)cc1` [Irbesartan (Avapro)], the inhibition at 10 µM stood at 0.237%. As for `O=C(O)/C=C/c1ccc(O)c(O)c1` [Caffeic acid], the figure is -2.37%; as for `CC1(C)CCC[C@]2(C)[C@H]3CC(=O)O[C@]3(C)CC[C@@H]12` [Sclareolide (Norambreinolide)], 28.8%; as for `COc1ccc(-c2nc3cc(C4=NNC(=O)CC4C)ccc3[nH]2)cc1` (centres unmarked) [Pimobendan (Vetmedin)], -0.217%. Take `COc1ccc(C(CN(C)C)C2(O)CCCCC2)cc1` (centres unmarked) [Venlafaxine]: the inhibition at 10 µM is 22.6%. The result for `Oc1c(Cl)cc(Cl)c2cccnc12` [Chloroxine] reads -4.86%. The result for `CCn1cc(C(=O)O)c(=O)c2ccc(C)nc21` [Nalidixic acid (NegGram)] reads -2.4%. The result for `Nc1nc2c(ncn2[C@@H]2O[C@H](CO)[C@@H](O)[C@H]2O)c(=O)[nH]1` [Guanosine] reads -1.96%; that for `Clc1ccccc1C(c1ccccc1)(c1ccccc1)n1ccnc1` [Clotrimazole (Canesten)], -1.47%; that for `CN(C)C(=N)NC(=N)N` [Metformin hydrochloride (Glucophage)], 10.2%.

`COc1c(C)c2c(c(O)c1C/C=C(\C)CCC(=O)OCCN1CCOCC1)C(=O)OC2` [Mycophenolate mofetil (CellCept)]: the inhibition at 10 µM worked out at 4.41%. The result for `COc1ccc([C@H]2CNC(=O)C2)cc1OC1CCCC1` [S-(+)-Rolipram] reads -1.23%; that for `C[C@@H](NCCCc1cccc(C(F)(F)F)c1)c1cccc2ccccc12` [AMG-073 HCl (Cinacalcet hydrochloride)], -14.8%. The result for `Nc1ccn([C@@H]2O[C@H](CO)[C@@H](O)C2(F)F)c(=O)n1` [Gemcitabine HCl (Gemzar)] reads -9.76%; that for `CC(=O)O[C@H]1C[C@@H]2CC[C@@H]3[C@H](CC[C@@]4(C)[C@H]3C[C@H]([N+]3(C)CCCCC3)[C@@H]4OC(C)=O)[C@@]2(C)C[C@@H]1[N+]1(C)CCCCC1` [Pancuronium (Pavulon)], 7.54%. As for `COC(=O)[C@H]1[C@H]2C[C@@H]3c4[nH]c5cc(OC)ccc5c4CCN3C[C@H]2C[C@@H](OC(=O)c2cc(OC)c(OC)c(OC)c2)[C@@H]1OC` [Reserpine], the figure is 24%; as for `O=c1[nH]cnc2nc[nH]c12` [Hypoxanthine], 1.08%; as for `CC(=O)OCC(=O)[C@@]12N=C(C)O[C@@H]1C[C@H]1[C@@H]3CCC4=CC(=O)C=C[C@]4(C)[C@H]3[C@@H](O)C[C@@]12C` [Deflazacort (Calcort)], -1.74%. Regarding `COc1ccccc1OCC(O)CO` (centres unmarked) [Guaifenesin (Guaiphenesin)], the inhibition at 10 µM was 13.1%.

`CCCSc1ccc2[nH]c(NC(=O)OC)nc2c1` [Albendazole (Albenza)]: the inhibition at 10 µM turned out to be 28.3%. `Nc1nc2c(c(=O)[nH]1)N(C=O)C(CNc1ccc(C(=O)N[C@@H](CCC(=O)O)C(=O)O)cc1)CN2` (some centres unmarked) [Leucovorin Calcium]: the inhibition at 10 µM is -10.9%. As for `C#C[C@]1(O)CC[C@H]2[C@@H]3CCC4=CC(=O)CC[C@@H]4[C@H]3CC[C@@]21CC` [Levonorgestrel (Levonelle)], the figure is -1.05%.
